The record followed here is patent US20260207755A1, “TARGETED PROTEIN DEGRADERS OF INDOLEAMINE 2,3-DIOXYGENASE 1 (IDO1)” (Northwestern University, priority 2022, published 2026).

pKd: −log10 of the molar value.

In test [1] the target is T1, 6×His tagged recombinant IDO1 protein (Homo sapiens, UniProt P14902).
T1 construct: purchased Active Motif 81031
Nature of the test: BLI binary binding of IDO1-PROTAC to immobilized IDO1. As to conditions: IDO1 on Ni-NTA sensors, PBS+0.5% DMSO pH 7.4, 30° C. On the procedure: (§1) FIGS. 13A-13C show mechanistic understanding of IDO1-PROTAC-induced IDO1 degradation. […] Data sets fitted globally with a 1:1 kinetic model. FIG. 13B is BLI sensorgrams showing association and dissociation of compound NU227164 to CRBN protein pre-immobilized on AR2G sensors. Binding experiments and data fitting were performed as described above. FIG. 13C is BLI sensorgrams for the IDO1-NU227164-CRBN ternary complex. IDO1 protein was loaded onto NiNTA biosensors. IDO1 was pre-immobilized on NI NTA sensors, and binding of compound NU227164 preincubated with CRBN was monitored in the association step; next, the sensors were moved into reaction buffer in order monitor dissociation. As indicated in the legend, each trace corresponds to a different concentration of NU227164. Data sets fitted globally with a 1:1 kinetic model. No binding was detected between CRBN and IDO1 in the absence of NU227164 (trace “CRBN only”).
(§2) FIGS. 14A-14C illustrate mechanistic understanding of DO1-PROTAC-induced IDO1 degradation. […] The equilibrium dissociation constant (Kd) was obtained by fitting the steady state data (Req as a function of compound concentration) with a 1:1 binding model. FIG. 14B is BLI sensorgrams showing association and dissociation of compound NU227168 to CRBN protein pre-immobilized on AR2G sensors. Binding experiments and data fitting were performed as described above. FIG. 14C is BLI sensorgrams for the IDO1-NU227168-CRBN ternary complex. IDO1 protein was loaded onto NiNTA biosensors. IDO1 was pre-immobilized on NI NTA sensors, and binding of compound NU227168 preincubated with CRBN was monitored in the association step; next, the sensors were moved into reaction buffer in order monitor dissociation. As indicated in the legend, each trace corresponds to a different concentration of NU227168. Data sets fitted globally with a 1:1 kinetic model. No binding was detected between CRBN and IDO1 in the absence of NU227168 (trace “CRBN only”).
(§3) FIGS. 15A-15C show mechanistic understanding of IDO1-PROTAC-induced IDO1 degradation. […] The equilibrium dissociation constant (Kd) was obtained by fitting the steady state data (Req as a function of compound concentration) with a 1:1 binding model. FIG. 15B is BLI sensorgrams showing association and dissociation of compound NU227191 to CRBN protein pre-immobilized on AR2G sensors. Binding experiments and data fitting were performed as described above. FIG. 15C is BLI sensorgrams for the IDO1-NU227191-CRBN ternary complex. IDO1 protein was loaded onto NiNTA biosensors. IDO1 was pre-immobilized on NI NTA sensors, and binding of compound NU227191 preincubated with CRBN was monitored in the association step; next, the sensors were moved into reaction buffer in order monitor dissociation. As indicated in the legend, each trace corresponds to a different concentration of NU227191. Data sets fitted globally with a 1:1 kinetic model. No binding was detected between CRBN and IDO1 in the absence of NU227191 (trace “CRBN only”).
(§4) FIGS. 16A-16C show mechanistic understanding of IDO1-PROTAC-induced IDO1 degradation. […] The equilibrium dissociation constant (Kd) was obtained by fitting the steady state data (Req as a function of compound concentration) with a 1:1 binding model. FIG. 16B is BLI sensorgrams showing association and dissociation of compound NU227199 to CRBN protein pre-immobilized on AR2G sensors. Binding experiments and data fitting were performed as described above. FIG. 16C is BLI sensorgrams for the IDO1-NU227199-CRBN ternary complex. IDO1 protein was loaded onto NiNTA biosensors. IDO1 was pre-immobilized on NI NTA sensors, and binding of compound NU227199 preincubated with CRBN was monitored in the association step; next, the sensors were moved into reaction buffer in order monitor dissociation. As indicated in the legend, each trace corresponds to a different concentration of NU227199. Data sets fitted globally with a 1:1 kinetic model. […]

The target in a further test is T2, cereblon (CRBN) protein (Homo sapiens, UniProt Q96SW2).
T2 construct: purchased Sino Biological
T2 sequence (Q96SW2 whole entry): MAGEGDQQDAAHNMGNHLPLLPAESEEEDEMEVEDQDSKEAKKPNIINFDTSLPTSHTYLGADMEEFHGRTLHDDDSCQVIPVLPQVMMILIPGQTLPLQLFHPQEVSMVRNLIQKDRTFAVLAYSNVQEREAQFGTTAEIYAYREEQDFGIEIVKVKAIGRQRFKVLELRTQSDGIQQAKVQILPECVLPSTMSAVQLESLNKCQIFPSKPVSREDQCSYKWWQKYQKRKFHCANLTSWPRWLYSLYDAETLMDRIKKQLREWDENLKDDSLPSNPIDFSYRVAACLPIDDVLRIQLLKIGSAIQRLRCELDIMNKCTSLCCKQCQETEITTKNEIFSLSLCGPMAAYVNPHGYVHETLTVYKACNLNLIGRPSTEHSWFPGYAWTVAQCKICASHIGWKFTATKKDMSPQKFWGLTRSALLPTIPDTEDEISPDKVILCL
Nature of the test: BLI binary binding of IDO1-PROTAC to immobilized CRBN. Particulars: CRBN amine coupled to AR2G sensors. The protocol:
as §1, §2, §3, §4

In test [2] the target is T3, IDO1-PROTAC-CRBN ternary complex (Homo sapiens, UniProt P14902+Q96SW2).
T3 construct: purchased Active Motif (IDO1); Sino Biological (CRBN) 81031 (IDO1); none given for CRBN
T3 sequence (P14902 whole entry): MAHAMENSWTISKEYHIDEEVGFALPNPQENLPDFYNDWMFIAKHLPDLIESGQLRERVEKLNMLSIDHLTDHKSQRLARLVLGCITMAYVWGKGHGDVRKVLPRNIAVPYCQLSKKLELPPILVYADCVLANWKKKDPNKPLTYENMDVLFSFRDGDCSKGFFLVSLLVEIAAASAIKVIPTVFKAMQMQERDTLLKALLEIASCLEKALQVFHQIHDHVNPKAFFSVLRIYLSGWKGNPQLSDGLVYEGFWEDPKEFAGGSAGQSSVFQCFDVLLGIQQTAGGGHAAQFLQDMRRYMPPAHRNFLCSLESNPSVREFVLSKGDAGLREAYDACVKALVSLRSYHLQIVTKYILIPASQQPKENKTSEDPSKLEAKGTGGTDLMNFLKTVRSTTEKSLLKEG
T3 sequence (Q96SW2 whole entry): as the sequence (Q96SW2 whole entry) above
Briefly: BLI IDO1-PROTAC-CRBN ternary complex. Type of test: binding. Particulars: IDO1 on NiNTA sensors, PROTAC pre-incubated with 25 molar excess of CRBN, 1:1 kinetic model. On the procedure:
as §1, §2, §3, §4

The test system of another test is kynurenine in U87 cells. Nature of the test: Kynurenine assay (Ehrlich's reagent) in U87 cells. Particulars: indicated doses of compound. Type of test: cell-based. The protocol:
(§5) FIGS. 20A-20E show biological activity of compounds NU227326 and NU227327.
Kynurenine levels in cell culture supernatants were measured using Erhlich's reagent. Briefly, cell culture supernatants were incubated with a 10% final concentration of trichloroacetic acid in Eppendorf tubes for 20 min at 60° C. to release kynurenine from cells and to precipitate proteins. After 20 minutes, samples were centrifuged for 20 min at 2500×g and supernatants were mixed with 20 mg/mL 4-dimethylamino benzaldehyde in acetic acid (Sigma Aldrich) at a 1:1 ratio and absorbance was measured at 480 nm using a plate reader.

The target in another test is T4, IDO1 in U87 cells (Homo sapiens, UniProt P14902).
T4 construct: endogenous in cells; host or cells: U87 cells, IDO1 induced with IFNγ
T4 sequence (P14902 whole entry): as the sequence (P14902 whole entry) above
Briefly: PROTAC-induced IDO1 degradation in U87 cells by Western blot. It is filed as cell-based. As to conditions: 24 h. On the procedure: as §5
(§6) FIGS. 22A-22D show determination of IDO1 degrading potency of NU227326.
(§7) Protein samples were prepared by lysing the cells in RIPA buffer (Sigma-Aldrich, Cat #R0278) supplemented with protease and phosphatase inhibitors on ice for 30 min. Cell lysates were clarified by centrifugation at 16,000×g for 15 min at 4° C. Equal amounts of proteins as quantified by bicinchoninic acid assay (Pierce) were separated on an SDS-polyacrylamide gel electrophoresis and proteins were electrophoretically transferred onto a polyvinylidene fluoride (PVDF) membrane using a Trans-Blot Turbo Transfer System (Bio-Rad, Hercules, CA, USA). The blotted membranes were blocked for 1 h at room temperature in blocking buffer containing 5% (w/v) nonfat dry milk in Tris-buffered saline and 0.1% Tween 20 (TBS-T) followed by incubating the membranes overnight at 4° C. with primary antibodies against a target protein diluted at a standardized concentration in blocking buffer. […] The protein bands were detected using an enhanced chemiluminescence reagent (SuperSignal West Femto Maximum Sensitivity substrate) and blots were visualized with Bio-Rad ImageLab software on a Bio-Rad […] MP imaging system. […]
For orientation: In western blotting, separated proteins are transferred to a membrane and probed.

The target of another test is T5, IDO1 in GBM43 cells (Homo sapiens, UniProt P14902).
T5 construct: endogenous in cells; host or cells: GBM43 cells
T5 sequence (P14902 whole entry): as above
Briefly: PROTAC-induced IDO1 degradation in GBM43 cells by Western blot. As to conditions: 24 h. Type of test: cell-based. The protocol: as §5, §6, §7

Where [3] appears, read: levels of IDO1 quantified from Western blot.

T1 sequence (P14902 whole entry): as above

`C[C@@H](C(=O)Nc1cccc(OC2CCN(C(=O)CN3CCC(CN4CCN(c5ccc6c(c5)C(=O)N(C5CCC(=O)NC5=O)C6=O)CC4)CC3)CC2)c1)[C@H]1CC[C@@H](c2ccnc3ccc(F)cc32)CC1` (stereo partly drawn) [NU227327, (2R)-N-(3-((1-(2-(4-((4-(2-(2,6-dioxopiperidin-3-yl)-1,3-dioxoisoindolin-5-yl)piperazin-1-yl)methyl)piperidin-1-yl)acetyl)piperidin-4-yl)oxy)phenyl)-2-((1s,4S)-4-(6-fluoroquinolin-4-yl)cyclohexyl)propanamide]: the pKd (commonly the negative decadic logarithm of the Kd, by convention in mol/L) in test [1] is 6.43; on cereblon (CRBN) protein, 6.28; in test [2], 6.00. The concentration of kynurenine result in the test on kynurenine in U87 cells is on record as “strong reduction of cellular kynurenine”.
With `C[C@@H](C(=O)Nc1cccc(OC2CCN(C(=O)CN3CCC(N4CCN(c5ccc6c(c5)C(=O)N(C5CCC(=O)NC5=O)C6=O)CC4)CC3)CC2)c1)[C@H]1CC[C@@H](c2ccnc3ccc(F)cc32)CC1` (stereo partly drawn) [NU227326, (2R)-N-(3-((1-(2-(4-(4-(2-(2,6-dioxopiperidin-3-yl)-1,3-dioxoisoindolin-5-yl)piperazin-1-yl)piperidin-1l-yl)acetyl)piperidin-4-yl)oxy)phenyl)-2-((1s,4S)-4-(6-fluoroquinolin-4-yl)cyclohexyl)propanamide], the pKd in test [1] is 6.85; at cereblon (CRBN) protein, 6.42; in test [2], 6.49. The “IDO1 degradation by Western blotting” value was “dose-dependent IDO1 degradation” at IDO1 in U87 cells (indicated concentrations); “potent and dose-dependent degradation of IDO1” at IDO1 in GBM43 cells (indicated concentrations). The 50% degradation concentration (DC50) – broadly, the midpoint of the concentration-degradation curve – at IDO1 in U87 cells (setting [3]) was 10.4 nM; on IDO1 in GBM43 cells (setting [3]), 20.3 nM. Also, the concentration of kynurenine result in the test with kynurenine in U87 cells is reported as “strong reduction of cellular kynurenine”.
As for `C[C@@H](C(=O)Nc1ccc(Cl)c(OC2CCN(C(=O)C3CCN(C[C@H]4CC[C@H](Nc5ccc6c(c5)C(=O)N(C5CCC(=O)NC5=O)C6=O)CC4)CC3)CC2)c1)[C@H]1CC[C@@H](c2ccnc3ccc(F)cc32)CC1` (stereo partly drawn) [NU227199, (2R)-N-(4-chloro-3-((1-(1-(((1r,4r)-4-((2-(2,6-dioxopiperidin-3-yl)-1,3-dioxoisoindolin-5-yl)amino)cyclohexyl)methyl)piperidine-4-carbonyl)piperidin-4-yl)oxy)phenyl)-2-((1s,4S)-4-(6-fluoroquinolin-4-yl)cyclohexyl)propanamide], the results for the pKd (in test [1]; at cereblon (CRBN) protein; in test [2]) were 5.68, 5.80 and 6.16, respectively.
Regarding “(2R)-N-(4-((1-(1-(2-((2-(2,6-dioxopiperidin-3-yl)-1,3-dioxoisoindolin-5-yl)amino)ethoxy)ethyl)piperidine-4-carbonyl)piperidin-4-yl)oxy)phenyl)-2-((1s,4S)-4-(6-fluoroquinolin-4-yl)cyclohexyl)propanamide [NU227191]”, the negative-log Kd (pKd) is 4.92 in test [1] and 5.29 on cereblon (CRBN) protein. In addition, the “IDO1-PROTAC-CRBN Ternary Kd” value in test [2] is given as “could not obtain”.
As for `C[C@@H](C(=O)Nc1ccc(Cl)c(OC2CCN(C(=O)CN3CCC(CN4CCN(c5ccc6c(c5)C(=O)N(C5CCC(=O)NC5=O)C6=O)CC4)CC3)CC2)c1)[C@H]1CC[C@@H](c2ccnc3ccc(F)cc32)CC1` (stereo partly drawn) [NU227164, (2R)-N-(4-chloro-3-((1-(2-(4-((4-(2-(2,6-dioxopiperidin-3-yl)-1,3-dioxoisoindolin-5-yl)piperazin-1-yl)methyl)piperidin-1-yl)acetyl)piperidin-4-yl)oxy)phenyl)-2-((1s,4,S)-4-(6-fluoroquinolin-4-yl)cyclohexyl)propanamide], the negative-log Kd (pKd) in test [1] was 6.37; on cereblon (CRBN) protein it was 6.51; in test [2] it was 6.89.
For `C[C@@H](C(=O)Nc1ccc(Cl)c(OC2CCN(C(=O)CN3CCC(N4CCN(c5ccc6c(c5)C(=O)N(C5CCC(=O)NC5=O)C6=O)CC4)CC3)CC2)c1)[C@H]1CC[C@@H](c2ccnc3ccc(F)cc32)CC1` (stereo partly drawn) [NU227168, (2R)-N-(4-chloro-3-((1-(2-(4-(4-(2-(2,6-dioxopiperidin-3-yl)-1,3-dioxoisoindolin-5-yl)piperazin-1-yl)piperidin-1-yl)acetyl)piperidin-4-yl)oxy)phenyl)-2-((1s,4S)-4-(6-fluoroquinolin-4-yl)cyclohexyl)propanamide], in that order: 6.47, 6.72 and 7.06.
